Structures are written as SMILES.

Assay [1] has as its target T1, KV10.1 (Eag1) (Homo sapiens, UniProt O95259).
T1 construct: expressed in transfected cells; host or cells: HEK-293 (stably transfected)
T1 sequence (O95259 1-962 isoform O95259-2): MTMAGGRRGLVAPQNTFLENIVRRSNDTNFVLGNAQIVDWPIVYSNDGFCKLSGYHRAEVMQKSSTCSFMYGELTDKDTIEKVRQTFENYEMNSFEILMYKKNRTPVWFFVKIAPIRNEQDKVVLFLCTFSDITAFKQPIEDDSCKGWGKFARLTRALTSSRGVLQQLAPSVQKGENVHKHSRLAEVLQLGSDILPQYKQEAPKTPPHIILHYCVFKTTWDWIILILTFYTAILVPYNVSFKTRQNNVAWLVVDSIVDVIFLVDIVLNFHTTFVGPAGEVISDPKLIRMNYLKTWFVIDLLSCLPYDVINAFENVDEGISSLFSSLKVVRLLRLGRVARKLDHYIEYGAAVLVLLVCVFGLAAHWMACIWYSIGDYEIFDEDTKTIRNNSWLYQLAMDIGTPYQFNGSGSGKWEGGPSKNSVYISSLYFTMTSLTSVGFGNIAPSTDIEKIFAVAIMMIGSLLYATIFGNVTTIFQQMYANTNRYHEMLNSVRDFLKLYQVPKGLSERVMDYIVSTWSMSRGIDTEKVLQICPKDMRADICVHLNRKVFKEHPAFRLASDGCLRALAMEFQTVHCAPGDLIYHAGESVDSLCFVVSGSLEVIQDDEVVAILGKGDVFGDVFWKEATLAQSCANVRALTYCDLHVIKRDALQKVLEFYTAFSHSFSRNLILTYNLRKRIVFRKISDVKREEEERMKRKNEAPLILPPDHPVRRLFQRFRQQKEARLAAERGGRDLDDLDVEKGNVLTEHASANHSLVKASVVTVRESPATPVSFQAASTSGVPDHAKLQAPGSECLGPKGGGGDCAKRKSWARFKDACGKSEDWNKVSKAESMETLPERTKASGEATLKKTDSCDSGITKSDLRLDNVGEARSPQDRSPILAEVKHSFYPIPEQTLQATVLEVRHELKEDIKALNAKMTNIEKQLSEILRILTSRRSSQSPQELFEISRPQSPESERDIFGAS
In words: Whole-cell patch-clamp on stably transfected HEK-293 cells expressing KV10.1. Type of assay: cell-based. To be noted: HEK293; 50 μM, HEK-293 cells, patch-clamp, mean ± SEM. Here is the method: For whole-cell patch-clamp measurements, stably transfected HEK-293 cells expressing KV10.1 [26, 27, 28] were grown in DMEM with 10% FCS and 300 µg/mL Zeocin on glass coverslips coated with fibronectin. All experiments were conducted at room temperature under perfusion by gravity with extracellular solution (160 mM NaCl, 2.5 mM KCl, 2 mM CaCl2, 1 mM MgCl2, 10 mM Hepes pH 7.4 with NaOH, 8 mM glucose). Pipettes were made from #1 glass capillaries (WPI) and had 1–3 MΩ resistance. The intracellular solution contained 100 mM KCl, 45 mM N-methyl-D-glucamine, 10 mM 1,2-bis(o-aminophenoxy)ethane-N,N,N′,N′-tetraacetic acid (BAPTA), 10 mM Hepes pH 7.35. Stimulation was applied and data were acquired with an EPC10 Plus amplifier (HEKA Elektronik) controlled with Patch Master software. Compounds were applied with an 8-channel fast solution exchanger (ALA). Compounds were prepared to a stock concentration of 10 mM in DMSO. The control solution contained 0.5% DMSO. Stimuli consisted of 500 ms depolarizations to +40 mV.
All electrophysiological data are presented as means ± SEM of n ≥ 3 independent experiments unless otherwise indicated. Oocyte data were analysed using pClamp Clampfit 10.4 (Molecular Devices, Downingtown, PA, USA) and OriginPro 9 (Originlab, Northampton, MA, USA) or GraphPad Prism 8 software (GraphPad Software, Inc., San Diego, CA, USA). Patch-clamp data analysis was performed using FitMaster (HEKA Electronics), IgorPro (Wavemetrics, Inc., Lake Oswego, OR, USA) and GraphPad Prism 9 (GraphPad Software, Inc., San Diego, CA, USA). The Dunnett test and one-way ANOVA were performed to calculate the significance of the induced inhibition compared to the control (p < 0.05).
For orientation: Patch clamp records ionic current or voltage across a cell membrane.

For assay [2], the system named is tumour spheroids of Colo357 cells. Details: method as in PMID 33808994. The settings on record: cited from earlier work.

A word on the inhibition: it is the drop in the measured response relative to a control, in per cent. Low readings indicate little suppression, high ones strong suppression. Turning to `O=C(NC1CCN(CC(O)COc2ccc(Nc3ccc(C(F)(F)F)cc3[N+](=O)[O-])cc2)CC1)c1ccc(Cl)c(Cl)c1` (stereo not shown) [Compound 16c, 3,4-Dichloro-N-(1-(2-hydroxy-3-(4-((2-nitro-4-(trifluoromethyl)phenyl)amino)phenoxy)propyl)piperidin-4-yl)benzamide], the inhibition at 50 µM in assay [1] was determined as 26.8 ± 10.1%. Take `O=[N+]([O-])c1cc(C(F)(F)F)ccc1Nc1ccc(OCC(O)CN2CCC(O)(COc3ccc(Cl)c(Cl)c3)CC2)cc1` (stereo not shown) [Compound 16a, 4-((3,4-Dichlorophenoxy)methyl)-1-(2-hydroxy-3-(4-((2-nitro-4-(trifluoromethyl)phenyl)amino)phenoxy)propyl)piperidin-4-ol]: the inhibition at 50 µM in assay [1] was 44.6 ± 8.6%. Take `CN(C)CCCOc1ccc(Nc2ccc(C(F)(F)F)cc2[N+](=O)[O-])cc1` [Compound 2]: in assay [2], the “apoptosis in tumour spheroids of Colo357 cells” value is “induced significant apoptosis”.

`COc1ccc(OCC2(O)CCN(CC(O)COc3ccc(Nc4ccc(C(F)(F)F)cc4[N+](=O)[O-])cc3)CC2)cc1` (stereo not shown) [Compound 16b, 1-(2-Hydroxy-3-(4-((2-nitro-4-(trifluoromethyl)phenyl)amino)phenoxy)propyl)-4-((4-methoxyphenoxy)methyl)piperidin-4-ol] had an inhibition at 50 µM in assay [1] of 60.7 ± 9.6%.
